In patent US11446287B2, “Compounds and methods for EP300 or CBP modulation and indications therefor” (Opna Immuno-Oncology SA, priority 2019, dated 2022) one finds IC50 data, which are given here for 29 compounds.

SMILES strings stand for the structures.

T1 sequence (Q92793 1081-1197): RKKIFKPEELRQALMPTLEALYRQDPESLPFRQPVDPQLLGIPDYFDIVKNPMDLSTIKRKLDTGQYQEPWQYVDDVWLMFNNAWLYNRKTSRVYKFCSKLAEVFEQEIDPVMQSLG

This test addresses T1, Recombinant human CBP containing the bromodomain (CBP-BD (1043-1159)) (Homo sapiens, UniProt Q92793).
T1 construct: Recombinant human CBP bromodomain (CBP-BD (1043-1159)); made in house; host or cells: E. coli BL21-CodonPlus (DE3), modified pET vector
In words: CBP Alphascreen binding assay. The conditions noted are these: read-out: CREBBP (CBP) IC50. Summed up: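 Buffer: 50 mM HEPES pH 7.5, 50 mM NaCl, 0.01% BSA, 0.01% Triton X-100, 2 mM DTT. The signal was normalised to plate controls and fitted with a four-parameter curve to give IC50.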
As for `Cc1noc(C)c1-c1cnc2c(c1)c(-c1ccc(C(=O)O)cc1OC(F)(F)F)cn2-c1cccnc1` [P-0175, 4-(5-(3,5-dimethylisoxazol-4-yl)-1-(pyridin-3-yl)-1H-pyrrolo[2,3-b]pyridin-3-yl)-3-(trifluoromethoxy)benzoic acid], the IC50 was 0.1 to 1000 nM. In the case of `COc1ccncc1-n1cc(-c2ccc(C(=O)O)cc2OC(F)(F)F)c2cc(-c3c(C)noc3C)cnc21` [P-0176, 4-(5-(3,5-dimethylisoxazol-4-yl)-1-(4-methoxypyridin-3-yl)-1H-pyrrolo[2,3-b]pyridin-3-yl)-3-(trifluoromethoxy)benzoic acid], the IC50 fell in the range of 0.1 to 1000 nM.

As for `Cc1noc(C)c1-c1cnc2c(c1)c(-c1ccc(C(=O)O)cc1OC(F)(F)F)cn2-c1cnccc1Cl` [P-0177, 4-(1-(4-chloropyridin-3-yl)-5-(3,5-dimethylisoxazol-4-yl)-1H-pyrrolo[2,3-b]pyridin-3-yl)-3-(trifluoromethoxy)benzoic acid], the IC50 lay within 0.1 to 1000 nM. As for `Cc1noc(C)c1-c1cnc2c(c1)c(-c1ccc(C(=O)O)cc1C#CC1CC1)cn2[C@@H](C)c1ccccn1` [P-0178, (S)-3-(cyclopropylethynyl)-4-(5-(3,5-dimethylisoxazol-4-yl)-1-(1-(pyridin-2-yl)ethyl)-1H-pyrrolo[2,3-b]pyridin-3-yl)benzoic acid], the IC50 fell in the range of 1000 to 8000 nM. Regarding `Cc1noc(C)c1-c1cnc2c(c1)c(-c1ccc(C(=O)O)cc1OC1CCC1)cn2[C@@H](C)c1ccccn1` [P-0179, (S)-3-cyclobutoxy-4-(5-(3,5-dimethylisoxazol-4-yl)-1-(1-(pyridin-2-yl)ethyl)-1H-pyrrolo[2,3-b]pyridin-3-yl)benzoic acid], the IC50 was 0.1 to 1000 nM. On to `Cc1noc(C)c1-c1cnc2c(c1)c(-c1ccc(C(=O)O)cc1OC(F)(F)F)cn2-c1ncccc1C(F)(F)F` [P-0180, 4-(5-(3,5-dimethylisoxazol-4-yl)-1-(3-(trifluoromethyl)pyridin-2-yl)-1H-pyrrolo[2,3-b]pyridin-3-yl)-3-(trifluoromethoxy)benzoic acid], for which the IC50 is 0.1 to 1000 nM. For `Cc1noc(C)c1-c1cnc2c(c1)c(-c1ccc(C(=O)O)cc1C1CC1)cn2[C@@H](C)c1ccccn1` [P-0181, (S)-3-cyclopropyl-4-(5-(3,5-dimethylisoxazol-4-yl)-1-(1-(pyridin-2-yl)ethyl)-1H-pyrrolo[2,3-b]pyridin-3-yl)benzoic acid], the IC50 is 0.1 to 1000 nM. Consider `Cc1noc(C)c1-c1cnc2c(c1)c(-c1ccc(C(=O)O)cc1OC(F)(F)F)cn2-c1ncccc1F` [P-0182, 4-(5-(3,5-dimethylisoxazol-4-yl)-1-(3-fluoropyridin-2-yl)-1H-pyrrolo[2,3-b]pyridin-3-yl)-3-(trifluoromethoxy)benzoic acid], for which the IC50 was 0.1 to 1000 nM.

Take `Cc1noc(C)c1-c1cnc2c(c1)c(-c1ccc(C(=O)O)cc1OC(F)(F)F)cn2-c1ncccc1Cl` [P-0183, 4-(1-(3-chloropyridin-2-yl)-5-(3,5-dimethylisoxazol-4-yl)-1H-pyrrolo[2,3-b]pyridin-3-yl)-3-(trifluoromethoxy)benzoic acid]: the IC50 fell in the range of 0.1 to 1000 nM. `CCOc1cc(C(=O)O)cc(OCC)c1-n1cc(-c2ccc(F)cc2)c2ncc(-c3c(C)noc3C)cc21` [P-0184, 4-(6-(3,5-dimethylisoxazol-4-yl)-3-(4-fluorophenyl)-1H-pyrrolo[3,2-b]pyridin-1-yl)-3,5-diethoxybenzoic acid]: the IC50 lay in the range of 0.1 to 1000 nM. Take `CCOc1cc(C(=O)O)cc(OCC)c1-n1cc(-c2cccc(Cl)c2)c2ncc(-c3c(C)noc3C)cc21` [P-0185, 4-(3-(3-chlorophenyl)-6-(3,5-dimethylisoxazol-4-yl)-1H-pyrrolo[3,2-b]pyridin-1-yl)-3,5-diethoxybenzoic acid]: the IC50 is 0.1 to 1000 nM. As to `CCOc1cc(C(=O)O)cc(OCC)c1-n1cc(-c2ccc(F)cc2F)c2ncc(-c3c(C)noc3C)cc21` [P-0186, 4-(3-(2,4-difluorophenyl)-6-(3,5-dimethylisoxazol-4-yl)-1H-pyrrolo[3,2-b]pyridin-1-yl)-3,5-diethoxybenzoic acid], the IC50 was in the range of 0.1 to 1000 nM. With `CCOc1cc(C(=O)O)cc(OCC)c1-n1cc(Cc2ccccn2)c2ncc(-c3c(C)noc3C)cc21` [P-0187, 4-(6-(3,5-dimethylisoxazol-4-yl)-3-(pyridin-2-ylmethyl)-1H-pyrrolo[3,2-b]pyridin-1-yl)-3,5-diethoxybenzoic acid], the IC50 lay in the range of 0.1 to 1000 nM. For the compound `Cc1noc(C)c1-c1cnc2c(c1)c(-c1ccc(C(=O)O)cc1OC(F)(F)F)cn2-c1ccccc1` [P-0188, 4-(5-(3,5-dimethylisoxazol-4-yl)-1-phenyl-1H-pyrrolo[2,3-b]pyridin-3-yl)-3-(trifluoromethoxy)benzoic acid], the IC50 lay in the range of 0.1 to 1000 nM. As for `Cc1ccncc1-n1cc(-c2ccc(C(=O)O)cc2OC(F)(F)F)c2cc(-c3c(C)noc3C)cnc21` [P-0189, 4-(5-(3,5-dimethylisoxazol-4-yl)-1-(4-methylpyridin-3-yl)-1H-pyrrolo[2,3-b]pyridin-3-yl)-3-(trifluoromethoxy)benzoic acid], the IC50 lay within 0.1 to 1000 nM.

For `CCOc1cc(C(=O)O)cc(OCC)c1-n1cc(CC2CCC2)c2ncc(-c3c(C)nnn3C)cc21` [P-0190, 4-(3-(cyclobutylmethyl)-6-(1,4-dimethyl-1H-1,2,3-triazol-5-yl)-1H-pyrrolo[3,2-b]pyridin-1-yl)-3,5-diethoxybenzoic acid], the IC50 is 0.1 to 1000 nM. As to `Cc1noc(C)c1-c1cnc2c(c1)c(-c1ccc(C(=O)O)cc1OC(F)(F)F)cn2CCN1CCOCC1` [P-0191, 4-(5-(3,5-dimethylisoxazol-4-yl)-1-(2-morpholinoethyl)-1H-pyrrolo[2,3-b]pyridin-3-yl)-3-(trifluoromethoxy)benzoic acid], the IC50 fell in the range of 0.1 to 1000 nM. Turning to `CCOc1cc(C(=O)O)cc(OCC)c1-n1cc(-c2ccc(C3CC3)nc2)c2ncc(-c3c(C)noc3C)cc21` [P-0192, 4-(3-(6-cyclopropylpyridin-3-yl)-6-(3,5-dimethylisoxazol-4-yl)-1H-pyrrolo[3,2-b]pyridin-1-yl)-3,5-diethoxybenzoic acid], the IC50 lay within 0.1 to 1000 nM.

In the case of `CCOc1cc(C(=O)O)cc(OCC)c1-n1cc(-c2cncc(Cl)c2)c2ncc(-c3c(C)noc3C)cc21` [P-0193, 4-(3-(5-chloropyridin-3-yl)-6-(3,5-dimethylisoxazol-4-yl)-1H-pyrrolo[3,2-b]pyridin-1-yl)-3,5-diethoxybenzoic acid], the IC50 lay in the range of 0.1 to 1000 nM. As for `CCOc1cc(C(=O)O)cc(OCC)c1-n1cc(-c2ccc(OC)cc2F)c2ncc(-c3c(C)noc3C)cc21` [P-0194, 4-(6-(3,5-dimethylisoxazol-4-yl)-3-(2-fluoro-4-methoxyphenyl)-1H-pyrrolo[3,2-b]pyridin-1-yl)-3,5-diethoxybenzoic acid], the IC50 was in the range of 0.1 to 1000 nM. For the compound `CCOc1cc(C(=O)O)cc(OCC)c1-n1cc(-c2cnn(C)c2)c2ncc(-c3c(C)noc3C)cc21` [P-0195, 4-(6-(3,5-dimethylisoxazol-4-yl)-3-(1-methyl-1H-pyrazol-4-yl)-1H-pyrrolo[3,2-b]pyridin-1-yl)-3,5-diethoxybenzoic acid], the IC50 lay in the range of 0.1 to 1000 nM. Consider `Cc1noc(C)c1-c1cnc2c(-c3ccccc3)cn(-c3ccc(C(=O)O)cc3OC(F)(F)F)c2c1` [P-0196, 4-(6-(3,5-dimethylisoxazol-4-yl)-3-phenyl-1H-pyrrolo[3,2-b]pyridin-1-yl)-3-(trifluoromethoxy)benzoic acid], for which the IC50 lay within 0.1 to 1000 nM.

For the compound `Cc1noc(C)c1-c1cnc2c(c1)c(-c1c(Cl)cc(C(=O)O)cc1Cl)cn2[C@@H](C)c1ccccn1` [P-0197, (S)-3,5-dichloro-4-(5-(3,5-dimethylisoxazol-4-yl)-1-(1-(pyridin-2-yl)ethyl)-1H-pyrrolo[2,3-b]pyridin-3-yl)benzoic acid], the IC50 lay in the range of 0.1 to 1000 nM. The result for `Cc1noc(C)c1-c1cnc2c(c1)c(-c1c(Cl)cc(C(=O)O)cc1OC(F)(F)F)cn2C(C1CC1)C1CC1` [P-0198, 3-chloro-4-(1-(dicyclopropylmethyl)-5-(3,5-dimethylisoxazol-4-yl)-1H-pyrrolo[2,3-b]pyridin-3-yl)-5-(trifluoromethoxy)benzoic acid] reads 0.1 to 1000 nM. Regarding `Cc1noc(C)c1-c1cnc2c(c1)c(-c1ccc(C(=O)O)cc1OC(F)(F)F)cn2C(CC#N)C1CC1` (centres unmarked) [P-0199, 4-(1-(2-cyano-1-cyclopropylethyl)-5-(3,5-dimethylisoxazol-4-yl)-1H-pyrrolo[2,3-b]pyridin-3-yl)-3-(trifluoromethoxy)benzoic acid], the IC50 lay within 0.1 to 1000 nM.

As to `Cc1noc(C)c1-c1cnc2c(c1)c(-c1ccc(C(=O)O)cc1OC(F)(F)F)cn2C(CC#N)C1CCCC1` (centres unmarked) [P-0200, 4-(1-(2-cyano-1-cyclopentylethyl)-5-(3,5-dimethylisoxazol-4-yl)-1H-pyrrolo[2,3-b]pyridin-3-yl)-3-(trifluoromethoxy)benzoic acid], the IC50 lay in the range of 0.1 to 1000 nM. The figure for `CCOc1cc(C(=O)O)cc(OCC)c1-n1cc(-c2cnc(OC)nc2)c2ncc(-c3c(C)noc3C)cc21` [P-0201, 4-(6-(3,5-dimethylisoxazol-4-yl)-3-(2-methoxypyrimidin-5-yl)-1H-pyrrolo[3,2-b]pyridin-1-yl)-3,5-diethoxybenzoic acid] is 0.1 to 1000 nM; for `Cc1noc(C)c1-c1cnc2c(c1)c(-c1ccc(C(=O)O)cc1OC(F)(F)F)cn2S(=O)(=O)C1CC1` [P-0202, 4-(1-(cyclopropylsulfonyl)-5-(3,5-dimethylisoxazol-4-yl)-1H-pyrrolo[2,3-b]pyridin-3-yl)-3-(trifluoromethoxy)benzoic acid] it is 0.1 to 1000 nM. On to `Cc1noc(C)c1-c1cnc2c(c1)c(-c1ccc(C(=O)O)cc1OC(F)(F)F)cn2-c1ccnc(C(C)C)c1` [P-0203, 4-(5-(3,5-dimethylisoxazol-4-yl)-1-(2-isopropylpyridin-4-yl)-1H-pyrrolo[2,3-b]pyridin-3-yl)-3-(trifluoromethoxy)benzoic acid], for which the IC50 fell in the range of 0.1 to 1000 nM.
